Tested on: CAL33 xenograft tumor
Experiment: Tumor volume and tumor weight in CAL33 xenograft tumor model (Example 29)
Assay type: in vivo, human
Conditions: 50 mg/kg twice weekly for two weeks; for Average Tumor Volume: CAL33 xenografts
Method: A xenograft tumor model was used to evaluate activity of modified oligonucleotides targeted to human Yap1. One million CAL33 cells in 30% matrigel were implanted subcutaneously into the flanks of female CrTac:NCr-Foxnlnu (Taconic) mice. When tumors reached an average volume of 100 mm^3, approximately two weeks post-implantation, groups of eight mice were administered at 50 mg/kg twice weekly with modified oligonucleotides for two weeks. ION 792169 was administered as a control.
Tumor volume was measured at the indicated days in the table below. Tumor weight was determined at end of study. Mice were sacrificed when tumors from PBS-treated mice reached 2,000 mm3.

With “1198728 (TATTAGAGTATGTGGC; modified gapmer, further chemistry not given here) [compound 1198728]” the “Average Tumor weight” value (CAL33 xenograft mice, end of study) was 0.88 g, the “Average Tumor Volume” value (day 10 post-implantation) was 113 mm^3 and the “Average Tumor Volume” value (day 13 post-implantation) was 253 mm^3. For the same substance, the “Average Tumor Volume” value (day 17 post-implantation) was 423 mm^3, the “Average Tumor Volume” value (day 21 post-implantation) was 621 mm^3 and the “Average Tumor Volume” value (day 24 post-implantation) was 835 mm^3. For the same substance, the “Average Tumor Volume” value (day 27 post-implantation) was 988 mm^3, the “Average Tumor Volume” value (day 31 post-implantation) was 1123 mm^3 and the “Average Tumor Volume” value (day 34 post-implantation) was 1233 mm^3. The “Average Tumor Volume” value (day 38 post-implantation) was 1239 mm^3, the “Average Tumor Volume” value (day 40 post-implantation) was 1277 mm^3 and the “Average Tumor Volume” value (day 44 post-implantation) was 1277 mm^3.
